Experimental data: US7575882B2, “Compositions and methods for identifying modulators of TRPV2” (Janssen Pharmaceutica N. V., priority 2005, dated 2009)

Columns and labels:
[1] = target: T1, rat TRPV2 (Rattus norvegicus, UniProt Q9WUD2, A713V/L151P/T158I); assay: Whole-cell patch clamp, HEK293 cells stably expressing rat TRPV2; assay type: cell-based; details: 10 μM ruthenium red; 100 μM Δ^9-THC
T1 construct: A cDNA fragment encoding the full-length rat TRPV2 was subcloned into pCI-neo; expressed in transfected cells
T1 sequence (Q9WUD2 1-761 L151P/T158I/A713V): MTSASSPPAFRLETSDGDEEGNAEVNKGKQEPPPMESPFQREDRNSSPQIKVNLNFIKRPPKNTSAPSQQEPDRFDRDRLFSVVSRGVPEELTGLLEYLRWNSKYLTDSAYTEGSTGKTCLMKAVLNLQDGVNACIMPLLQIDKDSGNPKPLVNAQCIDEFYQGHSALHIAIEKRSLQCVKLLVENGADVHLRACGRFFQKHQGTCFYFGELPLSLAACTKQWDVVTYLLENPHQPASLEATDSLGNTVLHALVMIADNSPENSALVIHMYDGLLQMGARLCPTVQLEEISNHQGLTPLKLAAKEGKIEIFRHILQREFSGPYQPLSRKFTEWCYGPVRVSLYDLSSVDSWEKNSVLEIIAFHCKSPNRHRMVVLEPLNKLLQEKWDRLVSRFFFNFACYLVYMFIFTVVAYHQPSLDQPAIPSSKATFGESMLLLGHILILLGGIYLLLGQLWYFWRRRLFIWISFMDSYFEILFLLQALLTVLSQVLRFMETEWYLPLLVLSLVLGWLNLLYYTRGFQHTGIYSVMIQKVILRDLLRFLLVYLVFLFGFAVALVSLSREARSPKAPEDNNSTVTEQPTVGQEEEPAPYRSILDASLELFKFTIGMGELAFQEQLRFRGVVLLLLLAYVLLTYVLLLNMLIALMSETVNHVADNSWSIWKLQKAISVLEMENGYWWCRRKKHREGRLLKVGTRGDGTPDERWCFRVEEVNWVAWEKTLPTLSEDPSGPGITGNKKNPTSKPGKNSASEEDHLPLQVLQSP
Description: To further confirm the Δ^9-THC effect on TRPV2, whole-cell patch clamp studies were performed. The extracellular solution contained (in mM): NaCl, 132; CaCl, 1.8; KCl, 5.4; MgCl2, 0.8; HEPES, 10; glucose, 10; pH=7.4. The intracellular solution used to fill recording pipettes contained (in mM): CsCl, 145; EGTA, 5; HEPES, 10; glucose, 5; pH=7.4. Recordings were performed using the conventional whole-cell patch clamp technique, 2-3 days after transient transfection of human TRPV2 into HEK293 cell or 1-2 days after plating HEK293 cells stably expressing rat TRPV2 onto glass coverslips. Currents were amplified by a patch clamp amplifier and filtered at 2 kHz (Axopatch 200B), sampled at 10 kHz using Digidata 1322A and acquired and analyzed with pClamp 9.0 (all instruments from Molecular Devices, CA). A 600 ms voltage ramp was given once every five seconds from −100 mV to +60 mV. The holding potential between voltage ramps was −100 mV. Extracellular solutions were applied to the cell at 0.5 ml/min via a gravity-fed perfusion system. All experiments were performed at 22° C.

[2] = target: T2, human TRPV2 (Homo sapiens, UniProt Q9Y5S1); assay: Whole-cell patch clamp, HEK293 cells transiently transfected with human TRPV2; assay type: cell-based; details: 10 μM ruthenium red; 100 μM Δ^9-THC
T2 construct: A cDNA fragment encoding the full-length human TRPV2 was subcloned into pCI-neo or pcDNA3; expressed in transfected cells; host or cells: HEK293, transient, pCI-neo or pcDNA3
T2 sequence (Q9Y5S1 1-764): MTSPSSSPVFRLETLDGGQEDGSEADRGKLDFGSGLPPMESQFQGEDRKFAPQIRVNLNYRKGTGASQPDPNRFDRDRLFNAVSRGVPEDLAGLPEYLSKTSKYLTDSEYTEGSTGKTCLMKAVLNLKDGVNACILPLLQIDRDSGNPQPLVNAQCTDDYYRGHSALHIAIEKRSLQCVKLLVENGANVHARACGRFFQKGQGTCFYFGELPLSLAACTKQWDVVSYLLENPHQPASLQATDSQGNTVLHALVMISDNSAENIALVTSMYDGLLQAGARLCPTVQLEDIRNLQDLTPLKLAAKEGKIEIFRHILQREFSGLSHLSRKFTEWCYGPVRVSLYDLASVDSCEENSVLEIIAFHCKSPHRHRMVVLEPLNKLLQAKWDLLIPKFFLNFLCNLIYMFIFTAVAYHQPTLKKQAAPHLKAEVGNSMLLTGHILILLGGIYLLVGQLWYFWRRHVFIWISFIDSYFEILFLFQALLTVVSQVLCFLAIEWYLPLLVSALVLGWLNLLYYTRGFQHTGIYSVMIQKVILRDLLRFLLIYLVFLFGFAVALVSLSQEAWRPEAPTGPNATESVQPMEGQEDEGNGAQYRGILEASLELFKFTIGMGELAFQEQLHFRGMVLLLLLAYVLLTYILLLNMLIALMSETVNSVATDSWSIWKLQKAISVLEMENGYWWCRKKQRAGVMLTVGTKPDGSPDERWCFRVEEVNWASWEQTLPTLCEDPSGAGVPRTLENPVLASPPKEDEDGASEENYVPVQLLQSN
Description: A cDNA fragment encoding the full-length human TRPV2 was subcloned into pCI-neo or pcDNA3 mammalian expression vectors. The expression constructs were then transfected into HEK293 cells with FuGene6 transfection reagent (Roche, Indianapolis, Ind.) according to vendor's protocol. TRPV2-expressing HEK293 cells were cultured in DMEM supplemented with 10% fetal bovine serum, 100 units/ml penicillin, and 100 μg/ml streptomycin for 48-72 hr and either evaluated for transient expression and/or activity, or dosed with 400 μg/ml G418 to select for stably-transfected TRPV2-expressing cell clones. Cells were maintained at 37° C. and in 5% CO2.
To further confirm the Δ^9-THC effect on TRPV2, whole-cell patch clamp studies were performed. The extracellular solution contained (in mM): NaCl, 132; CaCl, 1.8; KCl, 5.4; MgCl2, 0.8; HEPES, 10; glucose, 10; pH=7.4. The intracellular solution used to fill recording pipettes contained (in mM): CsCl, 145; EGTA, 5; HEPES, 10; glucose, 5; pH=7.4. […] Currents were amplified by a patch clamp amplifier and filtered at 2 kHz (Axopatch 200B), sampled at 10 kHz using Digidata 1322A and acquired and analyzed with pClamp 9.0 (all instruments from Molecular Devices, CA). […]

N.N.N.N.N.N.N.N.N.N.N.N.N.N.[Cl-].[Cl-].[Cl-].[Cl-].[Cl-].[Cl-].[O-2].[O-2].[Ru+3].[Ru+3].[Ru+4] [ruthenium red]
inhibition of Δ^9-THC-activated currents, rat TRPV2 [1]: significantly inhibited
inhibition of Δ^9-THC-activated currents, human TRPV2 [2]: significantly inhibited
